Results reported in PMC8847575, “HSL1 and BAM1/2 impact epidermal cell development by sensing distinct signaling peptides” (Nature Communications, 2022).
Ends that are not written are not given here.

What was measured:
[1] = target: T1, HSL1 ectodomain (Arabidopsis thaliana, UniProt Q9SGP2); experiment: ITC, peptide titrated into isolated HSL1 ectodomain; settings: peptide (syringe) into HSL1 ectodomain (cell), 25 °C, 20 mM sodium citrate pH 5.0, 150 mM NaCl, N fitted to 1, mean ± SD of at least two independent experiments, n.d = no binding detected
T1 construct: HSL1 (residues 17-618, AT1G28440); azurocidin or Drosophila BIP signal peptide (secretion signal) (N); made in house; host or cells: Trichoplusia ni Tnao38 insect cells (baculovirus)
T1 sequence (Q9SGP2 17-618): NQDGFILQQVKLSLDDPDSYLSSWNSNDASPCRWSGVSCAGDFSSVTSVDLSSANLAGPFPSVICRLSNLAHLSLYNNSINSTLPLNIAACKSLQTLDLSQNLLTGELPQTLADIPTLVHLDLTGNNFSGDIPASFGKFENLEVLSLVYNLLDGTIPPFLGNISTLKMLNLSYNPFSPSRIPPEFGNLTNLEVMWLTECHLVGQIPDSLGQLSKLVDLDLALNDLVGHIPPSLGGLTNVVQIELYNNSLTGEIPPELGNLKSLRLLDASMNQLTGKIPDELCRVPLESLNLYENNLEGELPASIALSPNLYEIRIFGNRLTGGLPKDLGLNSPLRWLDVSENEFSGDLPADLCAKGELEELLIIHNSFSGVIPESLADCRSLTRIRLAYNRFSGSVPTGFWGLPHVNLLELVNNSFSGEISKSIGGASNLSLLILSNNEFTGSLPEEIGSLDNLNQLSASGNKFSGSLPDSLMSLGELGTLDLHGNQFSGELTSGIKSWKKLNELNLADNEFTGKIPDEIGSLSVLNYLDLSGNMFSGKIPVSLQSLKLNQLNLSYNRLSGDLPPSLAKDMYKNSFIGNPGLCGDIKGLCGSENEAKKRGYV
Excerpt: (§1) All genes used for protein expression in Trichoplusia ni Tnao38 cells[46] were codon optimized and cloned into a modified pFastBac vector (Geneva Biotech) providing an azurocidin[47] or Drosophila BIP signal peptide, a TEV (tobacco etch virus protease) cleavage site and a Strep-9xHis tandem affinity tag at their carboxy terminus. The genes used are coding for the Arabidopsis ectodomains of HSL1 (residues 17-618, AT1G28440), HAE (residues 20-620, AT4G28490) SERK1 (residues 24–213, AT1G71830), and BAM1 (residues 20–637, AT5G65700). To perform Grating-coupled interferometry (GCI) experiments, HSL1 was fused to a non-cleavable Avi-tag[49],[50]. […] After every expression round, secretion of our proteins was detected using an anti-His-HRP conjugated antibody from Roche (Ref:11965085001) in a 1:2000 dilution. […] Proteins were analyzed for purity and structural integrity by SDS-PAGE.
(§2) Experiments were performed at 25 °C using a MicroCal PEAQ-ITC (Malvern Instruments) with a 200 µL standard cell and a 40 μL titration syringe. […] Molar protein concentrations for HSL1, BAM1, and SERK1 were calculated using their molar extinction coefficient and a molecular weight of 74,896 and 27,551 Da, respectively as previously determined. […] Experiments were done in duplicates or triplicates, otherwise specified, and data were analyzed using the MicroCal PEAQ-ITC Analysis Software provided by the manufacturer. […]

[2] = target: T2, HSL1-SERK1 complex (Arabidopsis thaliana, UniProt Q94AG2+Q9SGP2); experiment: ITC, SERK1 titrated into HSL1 plus peptide (ternary complex formation); settings: SERK1 (syringe) into HSL1 + indicated peptide (cell), 25 °C, 20 mM sodium citrate pH 5.0, 150 mM NaCl, N fitted to 1, mean ± SD of at least two independent experiments, n.d = no binding detected
T2 construct: HSL1 (residues 17-618, AT1G28440); made in house; host or cells: Trichoplusia ni Tnao38 insect cells (baculovirus)
T2 sequence (Q9SGP2 17-618): T1 sequence (Q9SGP2 17-618)
T2 sequence (Q94AG2 24-213 partner limits assumed): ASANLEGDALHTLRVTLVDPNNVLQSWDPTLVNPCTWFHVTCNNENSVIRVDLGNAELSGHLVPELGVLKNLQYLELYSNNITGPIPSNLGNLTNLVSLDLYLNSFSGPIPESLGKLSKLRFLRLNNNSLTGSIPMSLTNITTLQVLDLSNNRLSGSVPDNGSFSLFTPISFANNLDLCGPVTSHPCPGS
Excerpt: as §1, §2

Sequence: RLVPSGPNPLHH [CLE13]
- Kd (dissociation constant), peptide vs HSL1 [1]: could not detect binding
- Kd (dissociation constant), SERK1 vs HSL1 + peptide [2]: no biding was detected
